Data from patent US20210253518A1, “KINASE INHIBITOR” (NISSAN CHEMICAL CORPORATION, priority 2018, published 2021).

biological target: T1, LATS2 (Homo sapiens, UniProt Q9NRM7); test: Off-chip Mobility Shift Assay (MSA method), kinase inhibition; type: biochemical; conditions: MSA method; 10 steps from 10 μM to 0.3 nM
T1 sequence (Q9NRM7 1-1088): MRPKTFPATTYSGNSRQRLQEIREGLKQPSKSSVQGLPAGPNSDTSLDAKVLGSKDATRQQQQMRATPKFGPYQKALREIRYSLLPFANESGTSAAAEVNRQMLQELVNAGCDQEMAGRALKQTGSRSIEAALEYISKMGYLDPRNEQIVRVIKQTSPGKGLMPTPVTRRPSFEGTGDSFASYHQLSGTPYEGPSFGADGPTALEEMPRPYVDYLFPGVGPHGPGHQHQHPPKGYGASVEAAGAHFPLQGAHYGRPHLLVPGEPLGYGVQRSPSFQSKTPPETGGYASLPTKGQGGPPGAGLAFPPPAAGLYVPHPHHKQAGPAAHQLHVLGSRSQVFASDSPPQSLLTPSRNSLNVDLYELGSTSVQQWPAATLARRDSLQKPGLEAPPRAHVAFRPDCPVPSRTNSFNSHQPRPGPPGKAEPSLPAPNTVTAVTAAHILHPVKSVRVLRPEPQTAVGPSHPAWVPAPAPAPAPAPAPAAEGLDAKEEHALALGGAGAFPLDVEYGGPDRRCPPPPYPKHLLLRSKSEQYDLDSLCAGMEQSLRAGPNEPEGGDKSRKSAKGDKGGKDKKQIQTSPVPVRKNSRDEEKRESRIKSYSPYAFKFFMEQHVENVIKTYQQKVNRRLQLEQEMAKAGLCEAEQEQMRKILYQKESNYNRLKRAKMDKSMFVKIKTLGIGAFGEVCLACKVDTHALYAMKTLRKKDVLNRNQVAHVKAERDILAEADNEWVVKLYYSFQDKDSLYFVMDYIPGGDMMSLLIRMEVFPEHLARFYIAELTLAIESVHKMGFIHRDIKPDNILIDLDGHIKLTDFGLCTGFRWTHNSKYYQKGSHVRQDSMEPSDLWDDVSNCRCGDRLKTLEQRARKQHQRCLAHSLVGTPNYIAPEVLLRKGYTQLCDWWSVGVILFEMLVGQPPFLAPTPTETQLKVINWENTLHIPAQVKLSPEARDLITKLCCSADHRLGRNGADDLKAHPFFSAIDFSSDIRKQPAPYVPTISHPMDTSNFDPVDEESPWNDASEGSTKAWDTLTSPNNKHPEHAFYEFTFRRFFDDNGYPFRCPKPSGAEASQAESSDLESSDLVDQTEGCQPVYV
Procedure: For compound k-1:B-1, inhibitory activity evaluation (calculation of 50% inhibitory concentration (IC50)) was performed on 8 kinds of kinases (CGK2, LATS2, MSK1, p70S6K, PKACα, PKACβ, SGK2, SGK3). The activity was measured using the Off-chip Mobility Shift Assay (MSA method) described below. The compound was added such that the test concentration of k-1:B-1 was in 10 steps from the final concentration of 10 μM to 0.3 nM.
As an analysis method of the data, the mean signal of the control well containing all reaction components was set to 0% inhibition, the mean signal without enzyme addition was set to 100% inhibition, and the inhibition rate was calculated from the mean signal of 2 wells of each test substance test. The IC50 value was obtained by approximating a plot based on the test substance concentration and inhibition rate to a 4 parameter logistics curve by using the Excel Solver add-in and by the non-linear least squares method.
(§1) 5 μL of k-1:B-1 solution at 4-fold concentration, 5 μL of substrate/ATP/metal solution at 4-fold concentration, and 10 μL of kinase solution at 2-fold concentration, each prepared with assay buffer (20 mM HEPES, 0.01% Triton X-100, 2 mM DTT, pH 7.5), were mixed in the wells of a polypropylene 384-well plate and reacted at room temperature for 1 or 5 hr. Successively, 70 μL of Termination Buffer (QuickScout Screening Assist MSA; Carna Biosciences) was added to discontinue the reaction. Then, the substrate peptide and the phosphorylated peptide in the reaction solution were separated and quantified by the LabChip system (Perkin Elmer). The kinase reaction was evaluated by the resultant product ratio (P/(P+S)) calculated from the substrate peptide peak height (S) and the phosphorylated peptide peak height (P).
For compounds k-1:H-7, k-1:H-1, k-1:D-1, k-1:J-1, and k-1:B-1, inhibitory rate at 100 nM was calculated on 8 kinds of kinases (CGK2, LATS2, MSK1, p70S6K, PKACα, PKACβ, SGK2, SGK3). The activity was measured using the MSA method. As an analysis method of the data, the mean signal of the control well containing all reaction components was set to 0% inhibition, the mean signal without enzyme addition was set to 100% inhibition, and the inhibition rate was calculated from the mean signal of 2 wells of each test substance test.
as §1, with “a compound” for “k-1:B-1”
For compounds k-1:I-1, k-1:D-1, k-1:J-1, k-1:H-1, k-1:H-7, k-1:B-1, k-5:H-1, k-1:H-3, k-1:D-4 and k-1:I-10, inhibitory activity evaluation (calculation of IC50) was performed on LATS2. The activity was measured using the Off-chip Mobility Shift Assay (MSA method) described below. The compounds were added such that the test concentration of each compound was in 10 steps from the final concentration of 10 μM to 0.3 nM.
5 μL of k-1:I-1, k-1:D-1, k-1:J-1, k-1:H-1, k-1:H-7, k-1:B-1, k-5:H-1, k-1:H-3, k-1:D-4 and k-1:I-10 solutions at 4-fold concentration, 5 μL of substrate/ATP/metal solution at 4-fold concentration, and 10 μL of kinase solution at 2-fold concentration, each prepared with assay buffer (20 mM HEPES, 0.01% Triton X-100, 2 mM DTT, pH 7.5), were mixed in the wells of a polypropylene 384-well plate and reacted at room temperature for 1 or 5 hr. […]

In order of rising IC50:
1. CC/C(=N\NC(=O)CNc1cccc(O)c1)c1ccc(O)c(C)c1O [k-1:D-1]  1.84 nM
2. CC/C(=N\NC(=O)C(C)Nc1ccccc1)c1ccc(O)c(C)c1O (stereo not shown) [k-1:B-1]  5.12 nM
3. CC/C(=N\NC(=O)NCc1cccc(O)c1)c1ccc(O)c(C)c1O [k-1:J-1]  5.26 nM
4. CCC(=NNC(=O)C(CC)Nc1ccccc1)c1ccc(O)c(C)c1O (stereo not shown) [k-1:H-7]  6.57 nM
5. CCC(=NNC(=O)CNc1ccccc1)c1ccc(O)c(C)c1O [k-1:H-1]  12.9 nM

same assay, conditions: at 100 nM; MSA method; read-out: inhibition (%) LATS2

In order of falling inhibition at 0.1 µM:
1. CCC(=NNC(=O)C(CC)Nc1ccccc1)c1ccc(O)c(C)c1O (stereo not shown) [k-1:H-7]  95.8%
2. CC/C(=N\NC(=O)C(C)Nc1ccccc1)c1ccc(O)c(C)c1O (stereo not shown) [k-1:B-1]  93.8%
3. CCC(=NNC(=O)CNc1ccccc1)c1ccc(O)c(C)c1O [k-1:H-1]  92.1%

same assay, conditions: read-out: inhibition (%) LATS2

In order of rising inhibition at 0.1 µM:
1. CC/C(=N\NC(=O)NCc1cccc(O)c1)c1ccc(O)c(C)c1O [k-1:J-1]  96.2%
2. CC/C(=N\NC(=O)CNc1cccc(O)c1)c1ccc(O)c(C)c1O [k-1:D-1]  101%
